According to patent US12180145B2, “Fused cyclooctyne compounds and their use in metal-free click reactions” (Synaffix B.V., priority 2010, dated 2024):

What was measured:
[1] = prior art cyclooctynes; cited from earlier work
[2] = Reaction kinetics of cycloaddition (SPAAC) with benzyl azide, followed by proton NMR; type: physicochemical
Text: In a preferred embodiment, a compound of the Formula (IIa), (IIb) and/or (IIc), or a conjugate thereof as described above, is reacted with a compound comprising a 1,3-dipole or a 1,3-(hetero)diene. For example the cycloaddition of (IIa) with benzyl azide in aqueous conditions proceeds rapidly and cleanly to the corresponding triazole adducts with excellent reaction kinetics (k=0.09-0.28 M^−1 s^−1, depending on the solvent). […] Consequently, a mixture of the exo- and endo-compounds according to the invention may be applied in some applications, avoiding the need for separation of the exo- and endo-compounds and even further simplifying the synthesis of the compounds according to the invention.
The reaction kinetics for cycloaddition with the prototypical azide benzyl azide were investigated. Thus, compound endo-IIa.2 was dissolved in a 3:1 mixture of CD3CN and D2O and mixed with benzyl azide at a final concentration of 18 mM. […] A significant solvent effect was noticed because the same cycloaddition reaction in a 1:2 mixture of CD3CN and D2O gave rate constants of 0.28 and 0.25 M^−1 s^−1 for endo-IIa.2 and exo-IIa.2, respectively.

[3] = 3:1 mixture of CD3CN and D2O, final concentration 18 mM

SMILES	reaction rate constant k of cycloaddition with azide [1]	second-order rate constant of cycloaddition with benzyl azide ([2]; 1:2 mixture of CD3CN and D2O)	second-order rate constant of cycloaddition with benzyl azide [2, 3]
OC1Cc2ccccc2C#Cc2ccccc21 (stereo not drawn) [DIBO]	0.12 M⁻¹ s⁻¹		
O=C(O)CC1CCCCC#CC1(F)F (stereo not drawn) [DIFO3]	≤ 0.076 M⁻¹ s⁻¹		
OC[C@H]1[C@H]2CCC#CCC[C@@H]12 [endo-IIa.2, endo-9-(hydroxymethyl)bicyclo[6.1.0]non-4-yne]		0.28 M⁻¹ s⁻¹	0.12 M⁻¹ s⁻¹
OCC1C2CCC#CCCC12 (stereo not drawn) [exo-IIa.2, 9-(hydroxymethyl)bicyclo[6.1.0]non-4-yne]		0.25 M⁻¹ s⁻¹	0.10 M⁻¹ s⁻¹
